According to patent US20260159474A1, “Aminoindane Compounds and Compositions and Methods of Their Therapeutic Use” (Solvonis Therapeutics Ireland Holdings Limited, priority 2021, published 2026):
“Also recorded” adds a separate entry of the source. Like-named read-outs stand apart in the source and are kept apart here.

Assays:
[1] = system: 5-HT release in rat synaptosomes; assay: Serotonin release assay in rat cortex synaptosomes; type: biochemical; details: for 5-HT Release (pEC50): rat cortex synaptosomes, % of maximal release with 50 μM MDMA, n=2; for SERT/DAT Release Ratio: ratio of 5-HT and DA release potency, rat synaptosomes
Experimental: Methods-Evaluation of Monoamine Release: The potency of therapeutic compounds for stimulating DA release was measured by an endpoint release filtration assay in a 96-well format using rat synaptosomes, essentially as described by Sandtner et al. (Mol Pharmacol., 2016; 89(1):165-75.) and Baumann et al. (Neuropsychopharmacol, 2013; 38:552-562.) with some variations. One male rat was euthanized, and striatum/cortex regions were dissected over ice. The striatum portions were weighed and put in a glass tube containing ice-cold 0.32 M sucrose (dilution 1:24 w/v) for homogenization, while the frontal cortex tissue was diluted in ice-cold 0.32 M sucrose, 1:20 w/v. Tissues were homogenized and centrifuged for 10 mins at 1000×g. The two supernatants from striatum and cortex (crude synaptosomes) were retained on ice until use.
Test compounds were then serially diluted 1:4 in neat DMSO as concentration-response curves (CRC) of 11 points. To each well of a 2-mL 96 deep-well plate (Whatman UNIPLATE 96 well) were added: 2 μL of a concentration-response curve (CRC) of test compounds or 2 μL of DMSO (no-release condition) or 2 μL of MDMA 10 mM solution (final 50 μM, for maximal release), followed by 200 μL/well of complete Krebs-phosphate buffer (126 mM NaCl, 2.4 mM KCl, 0.83 mM CaCl2), 0.8 mM MgCl2, 0.5 mM KH2PO4, 0.5 mM Na2SO4, 11.1 mM glucose, 0.05 mM pargyline, 1 mg/mL ascorbic acid, freshly added, pH 7.4), containing 1 μM reserpine to block vesicular uptake of substrate. Desipramine (100 nM) and citalopram (100 nM) were also added to the release assay buffer in order to inhibit NET and SERT uptake, respectively. The final compound dilution, then, was 1:200 in 0.5% DMSO.
The raw data (cpm) from residual radioactivity onto the filter were elaborated for the determination of pEC50/EC50 values. Specifically, the compound effect was expressed as the percent of maximal release obtained with 50 μM MDMA (100% release) in comparison to vehicle (0.5% DMSO, 0% release). Both MDMA and D-amphetamine in CRC were used as internal controls in each release experiment. In each plate, for both 0% and 100% of release, the signal window was monitored and Z′ calculations were determined using the raw data of four replicates. 5-HT release was calculated in an identical fashion, except that 5 nM 3H-serotonin was added to crude cortex synaptosomes preparation diluted 1:13 (v/v) in complete Krebs-phosphate buffer containing 1 μM Reserpine, 100 nM GBR12909 and 100 nM nomifensine to block vesicular, DAT, and NET uptake, respectively. Synaptosomes were then loaded with 3H-5HT for 60 minutes at RT. After dispensing loaded synaptosomes onto a compound plate (200 μL/well), the release reaction proceeded for an additional 15 minutes. Stop by filtration, counting, and data elaboration were performed as described for DA release. Compounds were tested in duplicate (n=2).

[2] = molecular target: T1, human DAT (Homo sapiens, UniProt Q01959); assay: DAT uptake SPA in hDAT-CHO cells; type: cell-based
T1 construct: expressed in transfected cells; host or cells: CHO (hDAT-CHO)
T1 sequence (Q01959 whole entry): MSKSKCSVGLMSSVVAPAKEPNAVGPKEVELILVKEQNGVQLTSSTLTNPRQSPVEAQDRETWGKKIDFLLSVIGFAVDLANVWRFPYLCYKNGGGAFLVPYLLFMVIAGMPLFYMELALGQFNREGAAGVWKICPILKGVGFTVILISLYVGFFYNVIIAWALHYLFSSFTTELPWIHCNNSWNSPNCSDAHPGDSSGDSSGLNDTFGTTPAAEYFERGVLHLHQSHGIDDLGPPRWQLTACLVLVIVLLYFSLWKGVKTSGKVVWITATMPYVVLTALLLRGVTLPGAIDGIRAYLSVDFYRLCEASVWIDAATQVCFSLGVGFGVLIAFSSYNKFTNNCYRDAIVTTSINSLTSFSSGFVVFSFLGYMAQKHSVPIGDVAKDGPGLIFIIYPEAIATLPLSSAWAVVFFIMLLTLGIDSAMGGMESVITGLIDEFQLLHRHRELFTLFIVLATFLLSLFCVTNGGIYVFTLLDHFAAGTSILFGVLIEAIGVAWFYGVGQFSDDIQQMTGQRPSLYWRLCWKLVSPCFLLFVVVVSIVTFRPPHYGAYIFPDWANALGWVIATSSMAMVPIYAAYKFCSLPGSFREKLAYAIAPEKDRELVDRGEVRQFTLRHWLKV
Experimental: Methods-Evaluation of Monoamine Uptake/Transporter Inhibition: Inhibitory activity on DAT function was measured using an uptake assay in a recombinant CHO cell line stably expressing human DAT (hDAT-CHO). Potency was measured in terms of pIC50 by testing for inhibition of [3H]-dopamine uptake in hDAT-CHO cells in a multiwell format SPA.
Briefly, on experiment days, hDAT-CHO cells were detached using Versene and added at a density of approximately 300,000 cells/mL to the SPA Mixture, which contains the following components in Assay Buffer (20 mM HEPES, 145 mM NaCl, 5 mM KCl, 2 mM CaCl2), 1 mM MgCl2, 5.5 mM glucose, 0.01% Pluronic F127, pH 7.3): 0.75 mg/mL SPA Imaging beads (RPNQ0001, PerkinElmer), 10 μM pargyline and 80 nM of [3H]-dopamine (NET673, PerkinEImer). The SPA Mixture was added 20 μL/well to 384 well plates containing 0.1 μL/well of test compound in neat DMSO (11 points of 1:5 serial dilution, 0.5% DMSO final) or 0.1 μL of DMSO (total uptake) or 0.1 μL of the standard inhibitor indatraline (at 1 μM final concentration, as nonspecific uptake). Plates were sealed with a Top-seal A and read using a Microbeta counter (PerkinElmer) after 45 minutes of incubation at room temperature. […] The SPA Mixture was added 20 μL/well to 384 well plates containing 0.1 μL/well of test compound in neat DMSO (11 points of 1:5 serial dilution, 0.5% DMSO final), 0.1 μL of DMSO (total uptake), or 0.1 μL of the standard inhibitor indatraline (1 μM, nonspecific uptake). Plates were sealed with a Top-seal A and read using a Microbeta counter (PerkinElmer) after 120 minutes of incubation at room temperature.
For both tests, the raw experimental data (cpm) were elaborated for the determination of pIC50/IC50 values as % inhibition of specific uptake.

[3] = Intrinsic clearance in human liver microsomes; type: in vitro ADME; details: for microsomal CLint at 0.5 μM: pH 7.4, read-out: Cl (μL/min/mg protein) - Human Microsomes
Experimental: Methods: The general procedure involved incubating test compounds with liver microsomes and subsequently detecting the compounds to determine intrinsic clearance. Clearance was estimated from the rate of depletion k (min-1), the volume of the incubation V (mL), and the amount of microsomal proteins in the incubation M (mg). Intrinsic clearance is defined by the following equation: Clint=k*V/M.
Values for CLint are expressed as μL/min/mg liver microsomes. Verapamil and dextromethorphan were used as positive controls for CYP3A4 and CYP2D6 isoforms, respectively, to confirm metabolic activity. Stock solutions were prepared in DMSO for therapeutic compounds and positive controls verapamil and dextromethorphan (10 mM for all). Working solutions were prepared by diluting stock in MeOH to reach […]. However, this concentration can be varied, e.g., when the test item is not soluble in the selected solvent.
Prior to experimentation, frozen liver microsomes were thawed in a water bath at 37° C. and kept on ice until use. The microsomes were then diluted with 50 mM potassium phosphate buffer pH 7.4 to a protein concentration of 0.56 mg/mL. To prepare test and control items in final incubation conditions, 5 μL of test compound and positive control working solutions were added to 445 μL of microsomes incubation mixture at 0.56 mg/mL and 50 μL of regenerating system.
As it relates to the automated incubation procedure for microsomes incubation, the following procedure was followed. Briefly, 150 μL of quenching solution (ACN containing an appropriate Internal Standard, i.e. Rolipram and Diclofenac for positive and negative ion mode, respectively) was manually dispensed or dispensed by using the Hamilton system in each well of 96 deep well 1 mL plates. Next, 800-1000 μL-aliquots of NADPH regenerating system were pre-warmed at 37° C. for 5 minutes. 5 μL of 50 µM test items and control were added to 445 μL of the 0.56 mg/mL microsomes solution, and the incubation mixture was pre-warmed in a 96 deep well 2 mL plate (incubation plate) at 37° C. for 5 minutes. The incubation reactions were initiated by adding 50 μL of pre-warmed NADPH regenerating system to the incubation mixtures.
50 μL-aliquots were sampled from incubation mixtures at: 0, 3, 10, 15, 30, and 45 minutes. The samples were centrifuged at 3,000 rpm for 10 minutes and further diluted in order to optimize the analytical condition prior to the LC MS/MS or Rapid Fire-MS/MS analysis. Incubations of test items were run in duplicate (n=2) with a single positive control (n=1). For sample analysis, an LC-MS/MS system was used to monitor the test samples/control to internal standard peak area ratios as representative of the test or control item's concentration. Data from test item incubation was processed to give mean values where applicable. Metabolic stability was calculated from the ratio of peak area of the remaining test or control item with internal standard versus time.
Peak areas for test and control items were integrated using Integrator Software from Agilent or Analyst or MultiQuant Software from AB SciexTM and were exported to XLFit or Morphit (The Edge), which were designed to calculate in vitro metabolic stability parameters. The integrated peak areas of the test and control items at the selected time points were divided by the respective peak areas of the IS, and the percent of parent remaining was calculated by normalizing the peak area ratio of parent to IS at 0 min. Observed rate constant (kobs) for parent degradation was calculated by determining the slope of the line of the graph of the natural log of percentage parent remaining versus time of incubation. This was scaled for the protein in the incubation relative to that in the liver.

[4] = [3H]-dopamine uptake, hDAT-CHO cells, read-out: DAT Uptake SPA (pIC50) (converted)

Compound	5-HT Release (pEC50) [1]	SERT/DAT Release Ratio [1]	IC50 [2, 4]	Cl (μL/min/mg protein) - Human Microsomes [3]	microsomal CLint at 0.5 μM [3]	IC50 [2]	DAT Uptake SPA (pIC50) ([2]; [3H]-dopamine uptake, hDAT-CHO cells)
COC(=O)c1ccc2c(c1)CC(N)C2 (stereo not drawn) [CMP-405, 2-aminoindane-5-methylcarboxylate]	6.1	3.2	20 µM	greater clearance in human microsomes relative to MDMA	137 µL/min/mg		
COC(=O)c1cc2c(cc1OC)CC(N)C2 (stereo not drawn) [CMP-401]	5.5	>35	100 µM	greater clearance in human microsomes relative to MDMA	87.2 µL/min/mg		
COc1ccc2c(c1)CC(N)C2 (stereo not drawn) [MEAI, 5-methoxy-2-aminoindane]	6.8	28			137 µL/min/mg	50.1 µM	
COc1cc2c(cc1C)CC(N)C2 (stereo not drawn) [MMAI, 5-methoxy-6-methyl-2-aminoindane]	7.4	575			46.7 µL/min/mg	50.1 µM	
COC(=O)COc1ccc2c(c1)CC(N)C2 (stereo not drawn) [CMP-402]	5.0	>10	100 µM	greater clearance in human microsomes relative to MDMA; also recorded: greatest clearance	758 µL/min/mg		
CNC(C)Cc1ccc2c(c1)OCO2 (stereo not drawn) [MDMA]	7.0	2.6		41 μL/min/mg protein			5.7
